# Measurements taken from paper PMC7409137, “Characterisation of Ovarian Cancer Cell Line NIH-OVCAR3 and Implications of Genomic, Transcriptomic, Proteomic and Functional DNA Damage Response Biomarkers for Therapeutic Targeting” (Cancers, 2020).
# Read-outs that look alike come from different tables or passages of the source.
# Legend:
# [1] = test system: panel of cell lines, including the HCT116 p53 isogenic pair; design: method as in PMID 28062704; details: panel of cell lines incl. HCT116 p53 isogenic pair; cited from earlier work
# p53 mutant CLL cells = test system: p53 mutant CLL cells; design: method as in PMID 26312880; details: cited from earlier work
# NIH-OVCAR3 cells [2] = assay: cells
# Experimental: (§1) NIH-OVCAR3 cells were exposed to (A) VE-821 for 48 h, (B) carboplatin for 24 h or (C) rucaparib for 24 h. Media was replaced with drug free media for 21 days to allow colony formation. Data are the mean and standard deviation of at least three independent experiments. (D) Sensitivity of an additional 12 ovarian cancer cell lines to the three drugs was calculated in the same way and LC50 values were calculated. […] Data are pooled from 3 independent experiments per cell line.
# (§2) Cells were plated into 6-well tissue culture dishes at low densities and allowed to adhere for 24 h before being treated for 24 h with carboplatin (0–50 µM) or rucaparib (0–30 µM), or 48 h with VE-821 (0–30 µM). DMSO concentration was kept constant at 0.5%, including no-drug control, for drugs dissolved in DMSO. Following treatment, the medium was removed and replaced with fresh drug-free medium to allow colony formation. The cells were fixed in methanol: acetic acid (3:1 v/v) and stained with 0.4% crystal violet. Colonies were counted and the % survival for each treatment was calculated from the relative plating efficiency of treated versus untreated controls.
# [3] = test system: 12 ovarian cancer cell lines; assay: Colony formation assay, panel of 12 other ovarian cancer cell lines (mean)
# Experimental: as §1, with “(D) Sensitivity of an additional 12 ovarian cancer cell lines to the three drugs was calculated in the same way and LC50 values were calculated.” left out
# as §2
# [4] = test system: BRCA1 mutant HRR defective (HRD) cell lines (COV362 and UWB1.289); assay: Colony formation assay, HRR defective cell lines
# Experimental: as §1, §2
# [5] = test system: HRR competent (HRC) cell lines; assay: Colony formation assay, HRR competent cell lines
# Experimental: as §1, §2
# [6] = test system: M059J and M059J-Fus1 cells; design: method as in PMID 22576130; details: cited from earlier work
# p53 = type: cell-based, human
# NIH-OVCAR3 cells [7] = assay: Immunofluorescence based γH2AX-RAD51 foci assay; type: cell-based, human; details: 10 µM rucaparib, 48 h vs 0.5% DMSO
# Experimental: Figure 4 Assessment of HRR and NHEJ in the NIH-OVCAR3 cells. (A) Cells were exposed to 0.5% DMSO (control) or 10 µM rucaparib for 48 h before being fixed and stained as per the protocol outlined in the methods. After imaging, the number of γH2AX and RAD51 foci per nucleus was calculated using ImageJ software, data points represent number of foci in an individual nucleus. The fold change in number of foci per nuclei between control and 10 µM rucaparib was then calculated. (B) Cells were co-transfected with pDRGFP and pCBASceI plasmids and analysed for the presence of GFP-positive cells 48 h post-transfection. % HRR activity was calculated by normalizing to the untransfected control. […] (C) Cells were co-transfected with pimEJ5GFP and pCBASceI plasmids and analysed for the presence of GFP-positive cells 48 h post-transfection. % NHEJ activity was calculated by normalizing to the untransfected control. […] [* p < 0.05; ** p < 0.005; **** p < 0.0001 (unpaired t-test)].
# HRR was assessed by immunofluorescence. Cells were treated for 48 h with 10 μM rucaparib with 0.5% DMSO concentration for the untreated and treated cells. […] The number of γH2AX and RAD51 foci in each cell was quantified using ImageJ software and data was plotted using GraphPad Prism (GraphPad, San Diego, CA, USA).
# ATR [8] = molecular target: T1, ATR (Homo sapiens, UniProt Q13535); assay: ATR inhibition by western blot of pCHK1Ser345 after 4NQO, 9 other ovarian cancer cell lines; type: cell-based; details: mean of 9 ovarian cell lines
# T1 construct: NIH-OVCAR3 cells and 9 other ovarian cancer cell lines were exposed to 4NQO ± VE-821 as indicated for 1 hr before western blotting; endogenous in cells
# Experimental: (§3) (A) NIH-OVCAR3 cells and 9 other ovarian cancer cell lines were exposed to 4NQO ± VE-821 as indicated for 1 hr before western blotting. Chemiluminescence was quantified using Syngene software and expression of pCHK1Ser345 was normalised to vinculin expression. Western blot image is from a single representative experiment with pooled data from 3 independent experiments per cell line used to calculate the mean VE-821 IC50 and percentage inhibition at 1 µM VE-821. (B) Bar chart represents log-transformed read counts obtained from RNA-Seq data for each gene normalized to ACTB mRNA expression for NIH-OVCAR3 cells (black bars) and the mean mRNA expression of each gene across 12 cell lines (white bars) where each black dot represents one cell line. (C) Bar chart represents protein expression normalised to Ponceau-s staining calculated using ImageJ software in NIH-OVCAR3 cells (black bars) and the mean protein expression of each gene across 12 cell lines (white bars) where each black dot represents one cell line. Data are from a single experimental repeat. [PRKDC: DNA-PKcs, XRCC5: Ku80, XRCC6: Ku70]. […] Western blot of baseline protein expression in panel of ovarian cancer cell lines can be found at Figure S5.
# ATR [9] = molecular target: T1, ATR; assay: ATR inhibition by western blot of pCHK1Ser345 after 4NQO, NIH-OVCAR3; type: cell-based
# Experimental: as §3
# [10] = test system: HCT116 p53 isogenic cell line pair; design: method as in PMID 30127241; details: cited from earlier work
# [11] = ratio of LC50, colony formation
# [12] = Homo sapiens, 24 h, read-out: Rucaparib LC50 ± SD
# [13] = Homo sapiens, 48 h, read-out: VE-821 LC50 ± SD
# T1 sequence (Q13535 whole entry): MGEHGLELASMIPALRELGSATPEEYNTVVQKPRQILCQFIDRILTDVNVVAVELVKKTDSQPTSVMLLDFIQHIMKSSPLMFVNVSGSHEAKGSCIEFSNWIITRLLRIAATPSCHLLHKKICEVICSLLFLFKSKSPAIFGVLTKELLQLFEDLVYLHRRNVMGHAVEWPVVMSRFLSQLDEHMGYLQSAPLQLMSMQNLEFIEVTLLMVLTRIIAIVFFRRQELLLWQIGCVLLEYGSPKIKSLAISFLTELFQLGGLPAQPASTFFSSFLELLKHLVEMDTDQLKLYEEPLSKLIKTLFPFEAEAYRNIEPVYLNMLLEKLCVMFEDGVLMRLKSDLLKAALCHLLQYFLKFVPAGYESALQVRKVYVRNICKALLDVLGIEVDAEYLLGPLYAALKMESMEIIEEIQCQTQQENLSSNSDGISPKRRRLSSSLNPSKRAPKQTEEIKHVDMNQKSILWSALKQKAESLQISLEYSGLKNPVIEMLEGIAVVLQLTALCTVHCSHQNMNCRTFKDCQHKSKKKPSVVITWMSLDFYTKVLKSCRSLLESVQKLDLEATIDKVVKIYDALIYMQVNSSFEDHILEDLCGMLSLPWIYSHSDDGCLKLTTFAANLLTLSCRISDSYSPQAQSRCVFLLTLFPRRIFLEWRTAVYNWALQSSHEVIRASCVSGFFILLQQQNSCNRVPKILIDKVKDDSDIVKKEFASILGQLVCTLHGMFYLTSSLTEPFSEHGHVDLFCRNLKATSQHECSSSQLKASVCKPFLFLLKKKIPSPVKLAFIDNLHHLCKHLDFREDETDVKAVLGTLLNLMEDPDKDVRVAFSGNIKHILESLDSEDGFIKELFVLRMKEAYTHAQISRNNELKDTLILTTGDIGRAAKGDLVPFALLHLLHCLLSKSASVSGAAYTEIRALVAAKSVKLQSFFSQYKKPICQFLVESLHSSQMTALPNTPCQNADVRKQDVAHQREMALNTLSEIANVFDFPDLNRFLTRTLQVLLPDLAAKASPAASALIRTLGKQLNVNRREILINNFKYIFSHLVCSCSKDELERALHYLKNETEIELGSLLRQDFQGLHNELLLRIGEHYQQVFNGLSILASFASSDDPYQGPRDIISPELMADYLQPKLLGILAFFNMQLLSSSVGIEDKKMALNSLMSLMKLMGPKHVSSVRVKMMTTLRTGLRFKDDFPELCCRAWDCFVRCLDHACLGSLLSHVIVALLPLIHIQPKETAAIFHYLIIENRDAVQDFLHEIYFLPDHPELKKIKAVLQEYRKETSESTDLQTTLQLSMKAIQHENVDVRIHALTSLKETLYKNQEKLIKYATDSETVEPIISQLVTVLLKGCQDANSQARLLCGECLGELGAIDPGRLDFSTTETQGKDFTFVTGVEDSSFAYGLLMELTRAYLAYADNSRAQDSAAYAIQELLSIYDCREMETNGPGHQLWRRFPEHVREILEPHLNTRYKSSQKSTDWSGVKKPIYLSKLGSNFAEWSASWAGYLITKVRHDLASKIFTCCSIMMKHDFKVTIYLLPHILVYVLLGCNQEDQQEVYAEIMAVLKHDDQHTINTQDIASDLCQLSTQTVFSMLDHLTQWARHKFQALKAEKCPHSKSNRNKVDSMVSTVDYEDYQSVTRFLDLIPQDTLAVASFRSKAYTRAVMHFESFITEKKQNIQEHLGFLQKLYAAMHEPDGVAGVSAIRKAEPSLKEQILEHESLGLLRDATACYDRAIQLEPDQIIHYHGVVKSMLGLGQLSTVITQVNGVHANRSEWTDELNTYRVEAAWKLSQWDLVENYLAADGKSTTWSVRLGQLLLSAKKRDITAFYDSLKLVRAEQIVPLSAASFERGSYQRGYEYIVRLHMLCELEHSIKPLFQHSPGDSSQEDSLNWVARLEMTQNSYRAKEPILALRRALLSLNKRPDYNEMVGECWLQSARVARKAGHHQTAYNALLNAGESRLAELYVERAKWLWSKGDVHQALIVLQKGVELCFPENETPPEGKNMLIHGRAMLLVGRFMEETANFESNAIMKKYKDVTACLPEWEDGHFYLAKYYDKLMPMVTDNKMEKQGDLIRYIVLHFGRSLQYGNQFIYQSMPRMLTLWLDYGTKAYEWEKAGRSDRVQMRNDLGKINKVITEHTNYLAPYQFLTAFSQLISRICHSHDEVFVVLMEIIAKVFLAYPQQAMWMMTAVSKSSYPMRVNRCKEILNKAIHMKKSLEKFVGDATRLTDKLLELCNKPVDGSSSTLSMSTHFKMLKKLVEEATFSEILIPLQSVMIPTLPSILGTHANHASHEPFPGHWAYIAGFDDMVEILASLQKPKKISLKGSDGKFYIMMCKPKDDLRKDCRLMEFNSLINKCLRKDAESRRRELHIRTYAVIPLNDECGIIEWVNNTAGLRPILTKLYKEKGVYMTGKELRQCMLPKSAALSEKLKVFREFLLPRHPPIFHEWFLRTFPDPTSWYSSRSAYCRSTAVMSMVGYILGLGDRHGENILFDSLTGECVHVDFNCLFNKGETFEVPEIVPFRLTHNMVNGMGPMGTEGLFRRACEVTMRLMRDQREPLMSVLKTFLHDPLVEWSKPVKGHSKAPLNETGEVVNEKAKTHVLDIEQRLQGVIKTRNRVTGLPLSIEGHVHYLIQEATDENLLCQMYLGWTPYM
# T1 sequence (Q8WXE1 whole entry partner): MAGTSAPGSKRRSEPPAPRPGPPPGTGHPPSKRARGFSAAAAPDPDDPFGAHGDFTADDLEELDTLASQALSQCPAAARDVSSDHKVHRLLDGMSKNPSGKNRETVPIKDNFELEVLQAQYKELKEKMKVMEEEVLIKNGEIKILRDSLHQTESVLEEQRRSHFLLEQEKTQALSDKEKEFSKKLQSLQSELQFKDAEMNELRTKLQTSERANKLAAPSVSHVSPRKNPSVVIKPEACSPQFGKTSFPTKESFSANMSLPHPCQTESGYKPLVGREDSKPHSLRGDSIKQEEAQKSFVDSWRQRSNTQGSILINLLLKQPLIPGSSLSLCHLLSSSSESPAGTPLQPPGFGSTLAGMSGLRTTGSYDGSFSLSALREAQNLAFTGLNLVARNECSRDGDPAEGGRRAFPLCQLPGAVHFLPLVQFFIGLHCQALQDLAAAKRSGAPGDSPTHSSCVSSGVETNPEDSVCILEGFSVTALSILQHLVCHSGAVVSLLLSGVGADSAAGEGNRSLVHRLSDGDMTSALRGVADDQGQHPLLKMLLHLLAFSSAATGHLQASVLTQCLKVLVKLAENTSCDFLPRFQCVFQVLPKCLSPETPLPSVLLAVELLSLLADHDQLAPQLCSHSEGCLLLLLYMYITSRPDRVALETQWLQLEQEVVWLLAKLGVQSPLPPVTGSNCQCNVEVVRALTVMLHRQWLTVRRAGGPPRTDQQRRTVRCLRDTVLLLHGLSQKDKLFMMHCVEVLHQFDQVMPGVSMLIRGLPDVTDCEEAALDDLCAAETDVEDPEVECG
smiles,measurement,setting,value
C[C@@H]1COCCN1c1cc(C2([S@](C)(=N)=O)CC2)nc(-c2cc[nH]c3nccc2-3)n1 [AZD6738],Sensitivity in relation to p53 status,[1],independent of p53 status
same,Cytotoxicity in relation to p53 status,p53 mutant CLL cells,selectively cytotoxic towards p53 mutant CLL cells
N.N.O=C([O-])C1(C(=O)[O-])CCC1.[Pt+2] [Carboplatin],"Fold more sensitive, NIH-OVCAR3 compared to the 12 ovarian cancer cell lines",NIH-OVCAR3 cells [2]; [11],5 fold
same,CC50,"NIH-OVCAR3 cells [2]; read-out: Carboplatin LC50 ± SD, NIH-OVCAR3, 24 h exposure, then drug free media 21 days, colony formation",1290 ± 340 nM
same,CC50,"[3]; read-out: Carboplatin LC50 ± SD, mean of 12 ovarian cell lines, 24 h exposure, colony formation",6120 ± 6180 nM
same,CC50,"[4]; read-out: Carboplatin LC50 ± SD, HRD cell lines, 24 h exposure, colony formation",1520 ± 940 nM
same,CC50,"[5]; read-out: Carboplatin LC50 ± SD, HRC cell lines, 24 h exposure, colony formation",7020 ± 7090 nM
"COc1cccc2c1C(=O)c1c(O)c3c(c(O)c1C2=O)C[C@@](O)(C(=O)CO)C[C@@H]3O[C@H]1C[C@H](N)[C@H](O)[C@H](C)O1 [Doxorubicin, doxorubicin]","Fold higher percentage cell survival, NIH-OVCAR3 vs mean of the 12 ovarian cancer cell lines",NIH-OVCAR3 cells [2]; 100 nM doxorubicin,1.4 fold
same,CC50,"NIH-OVCAR3 cells [2]; Homo sapiens, OVCAR-3, read-out: Doxorubicin LC50 ± SD",55 ± 1.97 nM
same,percentage cell survival at 100 nM,"NIH-OVCAR3 cells [2]; NIH-OVCAR3, 100 nM doxorubicin",~ 17%
same,CC50,"[3]; Homo sapiens, 24 h, read-out: Doxorubicin LC50 ± SD",44.5 ± 15.5 nM
same,mean percentage cell survival at 100 nM,"[3]; mean of the 12 ovarian cancer cell lines, 100 nM doxorubicin",~ 12%
same,percentage cell survival at 100 nM,"[6]; M059J-Fus1 cells, 100 nM doxorubicin",~ 30%
same,"Fold more sensitive, NHEJ-deficient M059J vs NHEJ-proficient M059J-Fus1 cells",[6],20 fold
"Nc1ccn([C@@H]2O[C@H](CO)[C@@H](O)C2(F)F)c(=O)n1 [Gemcitabine, gemcitabine]",CC50,"NIH-OVCAR3 cells [2]; Homo sapiens, OVCAR-3, read-out: Gemcitabine LC50 ± SD",41.5 ± 1.2 nM
same,Gemcitabine LC50 ± SD,[3],28.7 nM
COc1ccc(C2=N[C@@H](c3ccc(Cl)cc3)[C@@H](c3ccc(Cl)cc3)N2C(=O)N2CCNC(=O)C2)c(OC(C)C)c1 [Nutlin-3],Induction of MDM2 and p21 (indicators of p53 activation),p53,no induction of either MDM2 or p21
"CC(=O)O[C@H]1C(=O)[C@@]2(C)[C@H]([C@H](OC(=O)c3ccccc3)[C@]3(O)C[C@H](OC(=O)[C@H](O)[C@@H](NC(=O)c4ccccc4)c4ccccc4)C(C)=C1C3(C)C)[C@]1(OC(C)=O)CO[C@@H]1C[C@@H]2O [Paclitaxel, paclitaxel]",CC50,"NIH-OVCAR3 cells [2]; Homo sapiens, OVCAR-3, read-out: Paclitaxel LC50 ± SD",2.71 ± 0.08 nM
same,CC50,"[3]; Homo sapiens, 24 h, read-out: Paclitaxel LC50 ± SD",3.37 ± 2.41 nM
"CNCc1ccc(-c2[nH]c3cc(F)cc4c3c2CCNC4=O)cc1 [Rucaparib, rucaparib]",CC50,"NIH-OVCAR3 cells [2]; Homo sapiens, OVCAR-3, read-out: Rucaparib LC50 ± SD",410 ± 60 nM
same,"Fold more sensitive, NIH-OVCAR3 compared to HRR competent (HRC) cell lines",NIH-OVCAR3 cells [2]; [11],26 fold
same,"Fold more sensitive, NIH-OVCAR3 compared to the 12 ovarian cancer cell lines",NIH-OVCAR3 cells [2]; [11],21 fold
same,CC50,[3]; [12],8800 ± 9580 nM
same,RAD51 foci formation,NIH-OVCAR3 cells [7],increase in RAD51 foci formation
same,γH2AX foci formation,NIH-OVCAR3 cells [7],induction in γH2AX foci
same,CC50,[4]; [12],280 ± 70 nM
same,CC50,[5]; [12],10500 ± 9610 nM
"CC[C@@]1(O)C(=O)OCc2c1cc1n(c2=O)Cc2cc3c(CN(C)C)c(O)ccc3nc2-1 [Topotecan, topotecan]",CC50,"NIH-OVCAR3 cells [2]; Homo sapiens, OVCAR-3, read-out: Topotecan LC50 ± SD",7.2 ± 0.36 nM
same,CC50,"[3]; Homo sapiens, 24 h, read-out: Topotecan LC50 ± SD",15.6 ± 9.32 nM
CS(=O)(=O)c1ccc(-c2cnc(N)c(C(=O)Nc3ccccc3)n2)cc1 [VE-821],CC50,"NIH-OVCAR3 cells [2]; Homo sapiens, OVCAR-3, read-out: VE-821 LC50 ± SD",17900 ± 4560 nM
same,"Fold more resistant, NIH-OVCAR3 compared to panel of 12 ovarian cancer cell lines",NIH-OVCAR3 cells [2]; [11],11 fold
same,CC50,[3]; [13],1580 ± 1120 nM
same,inhibition at 1 µM,"ATR [8]; 1 μM VE-821, 4NQO, 1 hr, pCHK1Ser345, read-out: ATR Inhibition at 1 μM VE-821 ± SD",78.1 ± 13.4%
same,IC50,"ATR [8]; 4NQO ± VE-821 for 1 hr, western blot, read-out: VE-821 IC50 ± SD (ATR inhibition, pCHK1Ser345)",380 ± 200 nM
same,CC50,[4]; [13],1010 ± 500 nM
same,IC50,"ATR [9]; 4NQO ± VE-821 for 1 hr, western blot, normalised to vinculin, read-out: VE-821 IC50 ± SD (ATR inhibition, pCHK1Ser345)",310 ± 270 nM
same,inhibition at 1 µM,"ATR [9]; OVCAR-3, 1 μM VE-821, 4NQO, 1 hr, pCHK1Ser345, read-out: ATR Inhibition at 1 μM VE-821 ± SD",81 ± 5.29%
same,Difference in sensitivity to single agent between p53 isogenic cells,[10],no difference in sensitivity
same,CC50,[5]; [13],1680 ± 1190 nM
